According to PubChem BioAssay AID248 (DTP/NCI, 2004):
Values joined by “and” are separate entries in the source; they are usually repeats but may differ in a detail not shown here. Equal values may be shown once. Toxic doses and inconclusive results are not listed. No stated cut-off is given here; in the data, active means T/C of 150% or more; inactive means T/C below 125%. Square brackets hold non-standard residues; d marks the D form. Peptide text beside a SMILES is read from it. * marks the point of attachment. ξ: configuration not given here. Cbz = O=C(OCc1ccccc1)*; ξI = CCC(C)C(N)C(=O)O

System: L1210 leukemia ip in BDF1 mice, survival T/C
Assay: NCI In Vivo Anticancer Drug Screen. Data for tumor model L1210 Leukemia (intraperitoneal) in B6D2F1 (BDF1) mice
Details: endpoint: mean survival time, higher = longer survival
Procedure, shortened: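 In this screen, tumor-bearing mice given compound are compared to those given vehicle, and their survival values are reported as a treated-to-control quotient.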

[1] = dose: 100.0 mg/kg/injection, schedule: Q04DX003 (ip), vehicle: saline with Tween-80
[2] = dose: 200.0 mg/kg/injection, schedule: Q04DX003 (ip), vehicle: saline with Tween-80
[3] = dose: 400.0 mg/kg/injection, schedule: Q04DX003 (ip), vehicle: saline with Tween-80
[4] = dose: 50.0 mg/kg/injection, schedule: Q01DX009 (ip), vehicle: saline
[5] = dose: 100.0 mg/kg/injection, schedule: Q04DX002 (ip), vehicle: Klucel (hydroxypropylcellulose) (HPC)
[6] = dose: 200.0 mg/kg/injection, schedule: Q04DX002 (ip), vehicle: Klucel (hydroxypropylcellulose) (HPC)
[7] = dose: 400.0 mg/kg/injection, schedule: Q04DX002 (ip), vehicle: Klucel (hydroxypropylcellulose) (HPC)
[8] = dose: 100.0 mg/kg/injection, schedule: Q04DX003 (ip), vehicle: saline
[9] = dose: 200.0 mg/kg/injection, schedule: Q04DX003 (ip), vehicle: saline
[10] = dose: 400.0 mg/kg/injection, schedule: Q04DX003 (ip), vehicle: saline
[11] = dose: 100.0 mg/kg/injection, schedule: Q01DX009 (ip), vehicle: Klucel (hydroxypropylcellulose) (HPC)
[12] = dose: 100.0 mg/kg/injection, schedule: Q04DX003 (ip), vehicle: Klucel (hydroxypropylcellulose) (HPC)
[13] = dose: 200.0 mg/kg/injection, schedule: Q01DX009 (ip), vehicle: Klucel (hydroxypropylcellulose) (HPC)
[14] = dose: 200.0 mg/kg/injection, schedule: Q04DX003 (ip), vehicle: Klucel (hydroxypropylcellulose) (HPC)
[15] = dose: 400.0 mg/kg/injection, schedule: Q01DX009 (ip), vehicle: Klucel (hydroxypropylcellulose) (HPC)
[16] = dose: 400.0 mg/kg/injection, schedule: Q04DX003 (ip), vehicle: Klucel (hydroxypropylcellulose) (HPC)
[17] = dose: 100.0 mg/kg/injection, schedule: Q01DX001 (ip), vehicle: Klucel (hydroxypropylcellulose) (HPC)
[18] = dose: 200.0 mg/kg/injection, schedule: Q01DX001 (ip), vehicle: Klucel (hydroxypropylcellulose) (HPC)
[19] = dose: 400.0 mg/kg/injection, schedule: Q01DX001 (ip), vehicle: Klucel (hydroxypropylcellulose) (HPC)

Measured: T/C

COc1cc2cc3c4cc(OC)c(OC)cc4cc[n+]3c(/C=C/c3ccccc3)c2cc1OC
inactive: dose: 100.0 mg/kg/injection, schedule: Q04DX003 (ip), vehicle: carboxymethylcellulose (CMC) 102 % of control | dose: 200.0 mg/kg/injection, schedule: Q04DX003 (ip), vehicle: carboxymethylcellulose (CMC) 110 % of control | dose: 400.0 mg/kg/injection, schedule: Q04DX003 (ip), vehicle: carboxymethylcellulose (CMC) 100 % of control

CCC(C)C(NC(=O)CNC(=O)OCc1ccccc1)C(=O)OC (stereo not drawn) (Cbz-Gly-[ξI]-OMe)
inactive: [1] 101 % of control | [2] 98 % of control | [3] 96 % of control

NC(=O)OCCI
inactive: [4] 105 % of control | dose: 50.0 mg/kg/injection, schedule: Q04DX003 (ip), vehicle: other 101 % of control | dose: 100.0 mg/kg/injection, schedule: Q04DX003 (ip), vehicle: other 121 % of control | dose: 200.0 mg/kg/injection, schedule: Q04DX003 (ip), vehicle: other 119 % of control

COc1cc2c(cc1OC)C1(NCC2)C(=O)Nc2c(Cl)cccc21 (configuration not stated)
inactive: dose: 30.0 mg/kg/injection, schedule: Q04DX002 (ip), vehicle: saline 124 % of control | dose: 60.0 mg/kg/injection, schedule: Q04DX002 (ip), vehicle: saline 113 % of control | dose: 120.0 mg/kg/injection, schedule: Q04DX002 (ip), vehicle: saline 117 % of control

O=C1OC(=O)C2CC(Cl)C(Cl)CC12 (configuration not stated)
inactive: dose: 100.0 mg/kg/injection, schedule: Q01DX009 (ip), vehicle: saline with Tween-80 89 % of control | [1] 89 % of control | dose: 200.0 mg/kg/injection, schedule: Q01DX009 (ip), vehicle: saline with Tween-80 86 % of control | [2] 100 % of control | dose: 400.0 mg/kg/injection, schedule: Q01DX009 (ip), vehicle: saline with Tween-80 89 % of control | [3] 104 % of control

OCn1c2ccccc2c2ccccc21
inactive: dose: 100.0 mg/kg/injection, schedule: Q01DX001 (ip), vehicle: other 98 % of control | [5] 113 % of control | dose: 200.0 mg/kg/injection, schedule: Q01DX001 (ip), vehicle: other 92 % of control | [6] 94 % of control | dose: 400.0 mg/kg/injection, schedule: Q01DX001 (ip), vehicle: other 98 % of control | [7] 113 % of control

CC[n+]1c(C)sc2cc(Cl)c(-c3ccccc3)cc21
inactive: [8] 98 % of control | [9] 101 % of control | [10] 95 % of control

CSc1ccc(OC(=O)NC2CCCCC2)cc1
inactive: [11] 98 % of control | [12] 98 % of control | [13] 101 % of control | [14] 101 % of control | [15] 116 % of control | [16] 101 % of control

O=c1[nH]c(C(F)(F)F)nc2[nH]ncc12
inactive: dose: 29.0 mg/kg/injection, schedule: Q01DX Z (ip), vehicle: methylcellulose (MC) 102 % of control | dose: 45.0 mg/kg/injection, schedule: Q01DX Z (ip), vehicle: methylcellulose (MC) 106 % of control | dose: 67.0 mg/kg/injection, schedule: Q01DX Z (ip), vehicle: methylcellulose (MC) 108 % of control | dose: 100.0 mg/kg/injection, schedule: Q01DX Z (ip), vehicle: methylcellulose (MC) 93 % of control

COC1OC(COC(=O)c2ccc([N+](=O)[O-])cc2)C(N(C)C(C)=O)C1OC(=O)c1ccc([N+](=O)[O-])cc1 (configuration not stated)
inactive: dose: 100.0 mg/kg/injection, schedule: Q01DX001 (ip), vehicle: carboxymethylcellulose (CMC) 93 % of control | dose: 200.0 mg/kg/injection, schedule: Q01DX001 (ip), vehicle: carboxymethylcellulose (CMC) 93 % of control | dose: 400.0 mg/kg/injection, schedule: Q01DX001 (ip), vehicle: carboxymethylcellulose (CMC) 93 % of control

NC(CSSCC(NC(=O)CNC(=O)OCc1ccccc1)C(=O)O)C(=O)O (configuration not stated)
inactive: [17] 93 % of control | [18] 90 % of control | [19] 98 % of control

COc1cc2c(c(OC)c1OC)-c1ccc(OC)c(=O)cc1[C@@H](NC(=O)CCl)CC2
inactive: dose: 0.06 mg/kg/injection, schedule: Q01DX009 (ip), vehicle: Klucel (hydroxypropylcellulose) (HPC) 108 % of control | dose: 0.12 mg/kg/injection, schedule: Q01DX009 (ip), vehicle: Klucel (hydroxypropylcellulose) (HPC) 110 % of control | dose: 0.14 mg/kg/injection, schedule: Q01DX009 (ip), vehicle: saline 115 % of control | dose: 0.18 mg/kg/injection, schedule: Q04DX003 (ip), vehicle: Klucel (hydroxypropylcellulose) (HPC) 102 % of control | dose: 0.23 mg/kg/injection, schedule: Q01DX009 (ip), vehicle: saline 121 % of control | dose: 0.25 mg/kg/injection, schedule: Q01DX009 (ip), vehicle: Klucel (hydroxypropylcellulose) (HPC) 118 % of control and 124 % of control | dose: 0.37 mg/kg/injection, schedule: Q04DX003 (ip), vehicle: Klucel (hydroxypropylcellulose) (HPC) 119 % of control | dose: 0.75 mg/kg/injection, schedule: Q04DX003 (ip), vehicle: Klucel (hydroxypropylcellulose) (HPC) 120 % of control

NC(N)=N/N=C(/C=N/N=C(N)N)C(O)C(O)CO (configuration not stated)
inactive: dose: 15.0 mg/kg/injection, schedule: Q01DX Z (ip), vehicle: carboxymethylcellulose (CMC) 101 % of control | dose: 30.0 mg/kg/injection, schedule: Q01DX Z (ip), vehicle: carboxymethylcellulose (CMC) 98 % of control | [4] 98 % of control | dose: 60.0 mg/kg/injection, schedule: Q01DX Z (ip), vehicle: carboxymethylcellulose (CMC) 104 % of control | dose: 100.0 mg/kg/injection, schedule: Q01DX009 (ip), vehicle: saline 98 % of control | [8] 102 % of control | dose: 120.0 mg/kg/injection, schedule: Q01DX Z (ip), vehicle: carboxymethylcellulose (CMC) 101 % of control | dose: 200.0 mg/kg/injection, schedule: Q01DX009 (ip), vehicle: saline 95 % of control | [9] 94 % of control | [10] 100 % of control

Cn1c2c(c(=O)n(C)c1=O)CCC(=O)N2
inactive: [5] 106 % of control | [6] 98 % of control | [7] 92 % of control

CC(=O)OC1CCC2(C)C(=CC(=O)C3C2CCC2(C)C(C(C)CCCC(C)C)CCC32)C1 (configuration not stated)
inactive: dose: 100.0 mg/kg/injection, schedule: Q01DX009 (sc), vehicle: steriod suspending solution 108 % of control | dose: 100.0 mg/kg/injection, schedule: Q04DX003 (sc), vehicle: steriod suspending solution 91 % of control | dose: 200.0 mg/kg/injection, schedule: Q01DX009 (sc), vehicle: steriod suspending solution 110 % of control | dose: 200.0 mg/kg/injection, schedule: Q04DX003 (sc), vehicle: steriod suspending solution 91 % of control | dose: 400.0 mg/kg/injection, schedule: Q01DX009 (sc), vehicle: steriod suspending solution 115 % of control | dose: 400.0 mg/kg/injection, schedule: Q04DX003 (sc), vehicle: steriod suspending solution 102 % of control

BrCc1ccc(CBr)c(Br)c1
inactive: dose: 25.0 mg/kg/injection, schedule: Q01DX009 (ip), vehicle: Klucel (hydroxypropylcellulose) (HPC) 108 % of control | dose: 50.0 mg/kg/injection, schedule: Q01DX009 (ip), vehicle: Klucel (hydroxypropylcellulose) (HPC) 98 % of control | dose: 50.0 mg/kg/injection, schedule: Q04DX003 (ip), vehicle: Klucel (hydroxypropylcellulose) (HPC) 104 % of control | [12] 95 % of control

COC(=O)c1ccccc1Nc1ccccc1[N+](=O)[O-]
inactive: dose: 75.0 mg/kg/injection, schedule: Q04DX003 (ip), vehicle: Klucel (hydroxypropylcellulose) (HPC) 101 % of control | [17] 100 % of control | dose: 150.0 mg/kg/injection, schedule: Q04DX003 (ip), vehicle: Klucel (hydroxypropylcellulose) (HPC) 87 % of control | [18] 95 % of control | dose: 300.0 mg/kg/injection, schedule: Q04DX003 (ip), vehicle: Klucel (hydroxypropylcellulose) (HPC) 90 % of control | [19] 113 % of control

NC(=O)c1nc2ccccc2nc1C(N)=O
inactive: [11] 92 % of control | [12] 92 % of control | [13] 92 % of control | [14] 92 % of control | [15] 96 % of control | [16] 90 % of control
